# Experimental data as given in ChEMBL document CHEMBL1201862, “PubChem BioAssay data set” (2004).
# The source made the active and inactive calls. Peptide text beside a SMILES is read from it. * marks the point of attachment. Cbz = O=C(OCc1ccccc1)*; CH2Cl = ClC*
# Legend:
# [1] = biological target: T1, Trace amine-associated receptor 1 (Homo sapiens, UniProt Q96RJ0); assay: Counterscreen for agonists of the human trace amine associated receptor 1 (hTAAR1): Fluorescence-based cell-based high throughput dose response assay to identify hTAAR1 agonist that also desensitize TAAR1 receptor response.; assay type: functional
# T1 sequence (Q96RJ0 whole entry): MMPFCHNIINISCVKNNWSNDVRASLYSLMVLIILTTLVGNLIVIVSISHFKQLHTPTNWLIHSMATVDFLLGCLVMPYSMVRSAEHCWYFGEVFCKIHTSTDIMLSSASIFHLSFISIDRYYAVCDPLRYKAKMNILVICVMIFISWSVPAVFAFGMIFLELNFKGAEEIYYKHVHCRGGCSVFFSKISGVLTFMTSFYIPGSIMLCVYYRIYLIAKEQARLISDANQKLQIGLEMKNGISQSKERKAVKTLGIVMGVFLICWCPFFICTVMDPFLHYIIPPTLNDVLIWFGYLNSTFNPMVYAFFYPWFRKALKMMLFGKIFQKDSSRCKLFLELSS
# [2] = cells; assay type: functional, cell-based
# [3] = biological target: T1, Trace amine-associated receptor 1; assay: Fluorescence-based cell-based high throughput dose response assay to identify agonists of the human trace amine associated receptor 1 (TAAR1).; assay type: functional
# [4] = cells; assay type: functional, cell-based; remark: listed apart in the source
# [5] = biological target: T2, Microphthalmia-associated transcription factor (Homo sapiens, UniProt O75030); assay: TRPM1 promoter luciferase signal decrease, dose response, MITF inhibitor project, cell-based, SK-MEL-5, cherry-picked, set 3 (AID 493073); assay type: functional
# T2 sequence (O75030 whole entry): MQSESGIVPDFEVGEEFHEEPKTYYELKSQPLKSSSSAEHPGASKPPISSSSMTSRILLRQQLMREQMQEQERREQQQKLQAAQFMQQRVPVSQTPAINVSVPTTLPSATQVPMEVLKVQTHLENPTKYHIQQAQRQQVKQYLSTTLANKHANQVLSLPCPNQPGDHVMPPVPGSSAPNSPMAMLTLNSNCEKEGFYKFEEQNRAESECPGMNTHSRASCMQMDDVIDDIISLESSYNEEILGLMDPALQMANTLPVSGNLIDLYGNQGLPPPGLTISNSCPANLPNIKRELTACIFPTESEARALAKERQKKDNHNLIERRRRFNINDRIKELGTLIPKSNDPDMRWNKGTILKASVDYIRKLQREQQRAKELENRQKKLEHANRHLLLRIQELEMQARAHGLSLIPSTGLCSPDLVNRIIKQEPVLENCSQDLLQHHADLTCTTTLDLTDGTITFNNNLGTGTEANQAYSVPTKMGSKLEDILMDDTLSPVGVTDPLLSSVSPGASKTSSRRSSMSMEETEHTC
# [6] = HEK293T cytotoxicity, dose response, cytotoxicity control for miR-122 modulator project, cell-based, inhibitor set, cherry-pick, set 2 (AID 720697); assay type: functional
# [7] = biological target: T3, Ubiquitin-conjugating enzyme E2 N (Homo sapiens, UniProt P61088); assay type: functional;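 note: Dose-response confirmation in a TR-FRET assay detecting UBC13-driven polyubiquitin chain formation, inhibition measured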
# T3 sequence (P61088 whole entry): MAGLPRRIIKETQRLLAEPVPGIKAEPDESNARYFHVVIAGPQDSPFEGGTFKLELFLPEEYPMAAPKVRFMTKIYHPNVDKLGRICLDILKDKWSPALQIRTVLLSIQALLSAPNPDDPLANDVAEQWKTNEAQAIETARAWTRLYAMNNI
# [8] = insulin promoter down-regulators in MIN6 cells, imaging, high-content screening, mouse beta cells (AID 1628); assay type: functional
# [9] = cytotoxicity in MIN6 insulinoma cells, dose response, cytotoxicity control, cell-based, mouse insulinoma (AID 2122); assay type: functional;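 note: confirmatory high-throughput counterscreen run to flag cytotoxic compounds; mouse MIN-6 beta cells carrying an insulin promoter eGFP reporter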
# [10] = biological target: 5-hydroxytryptamine receptor 2A (Mus musculus, UniProt P35363); assay type: functional, cell-based;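 note: CHO-K1 cells with tagged receptor and beta-arrestin; agonist potency measured as compound-induced activation of the receptor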
# [11] = biological target: Mu-type opioid receptor (Homo sapiens, UniProt P35372); assay type: functional, cell-based;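 note: U2OS cells with beta-arrestin recruitment to OPRM1 by beta-gal complementation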
# [12] = biological target: T4, ATP-dependent translocase ABCB1 (Homo sapiens, UniProt P08183); assay: ABCB1 efflux inhibitor potency, dose response, Jurkat-DNR cells, JC-1, flow cytometry, set 2 (AID 504569); assay type: functional; settings: read-out: EC50_MICROM_;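 note: potency of pump inhibitors that raise cellular JC-1 green fluorescence up to the nicardipine level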
# [13] = biological target: T4, ATP-dependent translocase ABCB1; assay: ABCG2 efflux pump inhibitor potency, dose response, Ig-MXP3 cells, JC-1, flow cytometry, set 2 (AID 504566); assay type: functional; settings: read-out: EC50_MICROM_;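 note: flow cytometry median green fluorescence of retained JC-1 dye; potency of efflux pump inhibition measured as rising substrate retention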
# [14] = biological target: Beta-lactamase (Salmonella choleraesuis (strain SC-B67), UniProt Q5J463)
# [15] = biological target: T5, Small ubiquitin-related modifier 1 (Homo sapiens, UniProt P63165); assay: inhibitors of SUMO1 partner interactions, dose response, biochemical, FRET (AID 624383); assay type: functional; settings: read-out: IC50_Mean
# [16] = biological target: Beta-lactamase (Pseudomonas aeruginosa, UniProt Q79MP6);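 note: biochemical dose-response test of metallo-beta-lactamase enzyme inhibition, read out by epi-absorbance; purified recombinant IMP-1 metallo-beta-lactamase with nitrocefin as substrate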
# [17] = biological target: T6, Voltage-gated N-type calcium channel alpha-1B subunit/Amyloid beta A4 precursor protein-binding family A member 1 (Homo sapiens, UniProt Q00975+Q02410); assay type: protein assay
# [18] = biological target: T6, Voltage-gated N-type calcium channel alpha-1B subunit/Amyloid beta A4 precursor protein-binding family A member 1; assay type: protein assay; remark: listed apart in the source
# [19] = biological target: T5, Small ubiquitin-related modifier 1; assay: inhibitors of SUMO1 peptide binding, dose response, biochemical, fluorescence polarization, uHTS hits (AID 624382); assay type: functional; settings: read-out: IC50_Mean
# [20] = biological target: T7, Adenosylmethionine-8-amino-7-oxononanoate aminotransferase (Mycobacterium tuberculosis, UniProt P9WQ81); assay: Mycobacterium tuberculosis BioA enzyme inhibitor Measured in Biochemical System Using Plate Reader - 2163-02_Inhibitor_Dose_CherryPick_Activity.; assay type: functional, Mycobacterium tuberculosis UT205
# T7 sequence (P9WQ81 whole entry): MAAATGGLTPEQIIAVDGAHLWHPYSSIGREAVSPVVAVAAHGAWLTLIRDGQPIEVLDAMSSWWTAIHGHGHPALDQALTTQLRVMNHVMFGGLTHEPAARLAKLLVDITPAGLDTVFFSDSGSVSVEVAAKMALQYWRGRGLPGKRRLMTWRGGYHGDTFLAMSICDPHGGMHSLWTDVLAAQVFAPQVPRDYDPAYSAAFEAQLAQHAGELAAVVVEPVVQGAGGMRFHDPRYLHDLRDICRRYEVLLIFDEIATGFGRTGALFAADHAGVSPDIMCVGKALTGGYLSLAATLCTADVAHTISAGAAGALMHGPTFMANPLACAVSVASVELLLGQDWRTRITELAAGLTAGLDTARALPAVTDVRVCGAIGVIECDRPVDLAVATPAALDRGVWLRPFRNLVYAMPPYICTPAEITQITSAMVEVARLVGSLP
# [21] = tested on: Vero; assay: cells; assay type: functional, cell-based; settings: Chlorocebus sabaeus
# [22] = tested on: Vero; assay: cells; assay type: functional; settings: Chlorocebus sabaeus
# [23] = biological target: T8, Fatty acid synthase (Homo sapiens, UniProt P49327); assay: FAS thioesterase domain inhibitors, dose response, biochemical, endpoint fluorescence intensity, uHTS hits (AID 624327); assay type: functional;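 note: fluorescence from hydrolysis of an O-methyl fluorescein acyl ester substrate by the enzyme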
# [24] = biological target: T8, Fatty acid synthase; assay: FAS thioesterase domain inhibitors, dose response, biochemical, kinetic fluorescence intensity (AID 624326); assay type: functional;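 note: rate of fluorescence rise from hydrolysis of a fluorogenic O-methyl fluorescein ester substrate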
# T6 sequence (Q00975 whole entry): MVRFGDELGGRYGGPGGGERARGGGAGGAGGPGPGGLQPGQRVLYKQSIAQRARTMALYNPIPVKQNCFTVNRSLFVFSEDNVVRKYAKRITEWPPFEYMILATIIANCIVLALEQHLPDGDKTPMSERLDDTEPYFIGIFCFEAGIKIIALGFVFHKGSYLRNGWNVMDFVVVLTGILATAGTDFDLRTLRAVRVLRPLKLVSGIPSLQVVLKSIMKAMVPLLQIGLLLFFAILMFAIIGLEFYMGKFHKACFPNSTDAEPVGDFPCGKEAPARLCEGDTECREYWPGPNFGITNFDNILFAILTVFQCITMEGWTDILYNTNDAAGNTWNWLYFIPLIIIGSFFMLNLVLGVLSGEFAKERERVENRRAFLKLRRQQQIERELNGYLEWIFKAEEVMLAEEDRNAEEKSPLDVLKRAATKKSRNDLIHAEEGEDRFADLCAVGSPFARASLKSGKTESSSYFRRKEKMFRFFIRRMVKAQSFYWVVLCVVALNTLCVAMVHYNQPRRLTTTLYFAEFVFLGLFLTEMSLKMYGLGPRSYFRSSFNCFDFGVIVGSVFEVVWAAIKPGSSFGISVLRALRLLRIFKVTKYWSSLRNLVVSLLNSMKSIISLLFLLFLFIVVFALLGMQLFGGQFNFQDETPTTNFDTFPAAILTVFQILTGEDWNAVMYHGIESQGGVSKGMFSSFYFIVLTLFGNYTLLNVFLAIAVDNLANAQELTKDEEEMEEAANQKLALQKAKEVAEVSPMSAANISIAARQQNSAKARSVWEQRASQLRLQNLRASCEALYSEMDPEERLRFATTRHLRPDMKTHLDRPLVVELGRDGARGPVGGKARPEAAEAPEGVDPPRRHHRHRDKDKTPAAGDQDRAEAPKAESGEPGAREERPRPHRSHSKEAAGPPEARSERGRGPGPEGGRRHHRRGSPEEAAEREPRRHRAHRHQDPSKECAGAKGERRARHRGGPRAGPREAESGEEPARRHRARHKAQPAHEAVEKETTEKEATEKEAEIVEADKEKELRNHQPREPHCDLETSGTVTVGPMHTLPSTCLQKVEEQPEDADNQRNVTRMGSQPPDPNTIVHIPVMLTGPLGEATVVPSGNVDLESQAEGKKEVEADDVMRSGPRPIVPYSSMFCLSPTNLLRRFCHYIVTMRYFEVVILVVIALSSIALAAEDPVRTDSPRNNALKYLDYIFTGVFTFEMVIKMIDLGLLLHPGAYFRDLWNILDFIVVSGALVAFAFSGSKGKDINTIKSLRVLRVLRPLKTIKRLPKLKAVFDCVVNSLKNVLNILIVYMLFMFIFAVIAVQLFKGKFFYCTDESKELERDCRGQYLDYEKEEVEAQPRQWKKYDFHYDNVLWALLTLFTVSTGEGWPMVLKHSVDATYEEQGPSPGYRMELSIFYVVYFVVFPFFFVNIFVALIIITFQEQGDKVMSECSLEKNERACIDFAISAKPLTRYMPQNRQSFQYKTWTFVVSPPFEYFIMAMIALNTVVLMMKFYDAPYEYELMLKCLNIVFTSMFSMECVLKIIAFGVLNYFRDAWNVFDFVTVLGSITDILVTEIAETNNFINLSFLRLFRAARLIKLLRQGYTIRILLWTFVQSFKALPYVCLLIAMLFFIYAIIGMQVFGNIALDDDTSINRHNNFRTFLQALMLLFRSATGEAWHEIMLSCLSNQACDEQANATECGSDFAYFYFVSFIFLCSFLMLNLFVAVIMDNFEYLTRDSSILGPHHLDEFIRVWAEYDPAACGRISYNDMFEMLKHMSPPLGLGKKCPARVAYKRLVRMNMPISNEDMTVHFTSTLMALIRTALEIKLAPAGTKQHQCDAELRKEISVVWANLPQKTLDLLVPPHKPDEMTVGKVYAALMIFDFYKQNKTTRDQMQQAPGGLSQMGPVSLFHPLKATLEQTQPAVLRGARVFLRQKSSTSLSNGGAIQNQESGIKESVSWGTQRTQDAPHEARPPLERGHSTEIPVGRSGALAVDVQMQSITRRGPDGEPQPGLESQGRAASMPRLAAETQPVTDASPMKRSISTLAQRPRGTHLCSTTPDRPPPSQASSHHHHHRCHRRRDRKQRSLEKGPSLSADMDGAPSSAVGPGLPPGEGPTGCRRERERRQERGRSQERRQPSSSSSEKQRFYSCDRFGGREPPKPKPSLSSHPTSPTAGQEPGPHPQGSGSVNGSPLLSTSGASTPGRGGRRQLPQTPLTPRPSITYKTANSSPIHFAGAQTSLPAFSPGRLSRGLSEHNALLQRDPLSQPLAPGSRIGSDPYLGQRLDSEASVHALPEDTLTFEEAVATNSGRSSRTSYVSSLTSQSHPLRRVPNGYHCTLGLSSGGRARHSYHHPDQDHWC
# T6 sequence (Q02410 whole entry): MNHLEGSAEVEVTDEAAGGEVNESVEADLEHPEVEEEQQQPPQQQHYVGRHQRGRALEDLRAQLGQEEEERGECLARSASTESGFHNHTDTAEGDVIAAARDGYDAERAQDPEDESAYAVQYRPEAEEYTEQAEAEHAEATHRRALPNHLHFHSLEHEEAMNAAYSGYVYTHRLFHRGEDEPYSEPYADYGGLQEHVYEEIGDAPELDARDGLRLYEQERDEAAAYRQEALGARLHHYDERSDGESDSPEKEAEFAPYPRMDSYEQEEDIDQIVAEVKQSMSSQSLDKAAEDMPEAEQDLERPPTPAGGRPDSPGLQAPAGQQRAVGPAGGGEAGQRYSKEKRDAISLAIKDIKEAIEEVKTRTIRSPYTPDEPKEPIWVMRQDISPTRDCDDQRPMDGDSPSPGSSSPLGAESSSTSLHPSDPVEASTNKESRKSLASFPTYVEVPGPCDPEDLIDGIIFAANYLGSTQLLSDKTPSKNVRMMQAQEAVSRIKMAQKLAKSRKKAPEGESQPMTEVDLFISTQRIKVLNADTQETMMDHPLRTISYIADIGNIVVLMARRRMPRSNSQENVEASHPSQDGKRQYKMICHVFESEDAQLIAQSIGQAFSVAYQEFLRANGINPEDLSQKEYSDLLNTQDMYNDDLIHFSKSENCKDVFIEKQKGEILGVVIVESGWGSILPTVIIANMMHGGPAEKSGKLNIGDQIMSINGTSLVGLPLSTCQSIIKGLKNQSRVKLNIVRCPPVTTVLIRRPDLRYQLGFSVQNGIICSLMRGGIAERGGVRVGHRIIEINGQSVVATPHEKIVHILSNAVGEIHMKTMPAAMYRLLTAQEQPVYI
# T5 sequence (P63165 whole entry): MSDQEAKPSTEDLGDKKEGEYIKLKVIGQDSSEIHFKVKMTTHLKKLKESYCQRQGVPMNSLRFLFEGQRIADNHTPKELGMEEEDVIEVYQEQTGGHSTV
# T4 sequence (P08183 whole entry): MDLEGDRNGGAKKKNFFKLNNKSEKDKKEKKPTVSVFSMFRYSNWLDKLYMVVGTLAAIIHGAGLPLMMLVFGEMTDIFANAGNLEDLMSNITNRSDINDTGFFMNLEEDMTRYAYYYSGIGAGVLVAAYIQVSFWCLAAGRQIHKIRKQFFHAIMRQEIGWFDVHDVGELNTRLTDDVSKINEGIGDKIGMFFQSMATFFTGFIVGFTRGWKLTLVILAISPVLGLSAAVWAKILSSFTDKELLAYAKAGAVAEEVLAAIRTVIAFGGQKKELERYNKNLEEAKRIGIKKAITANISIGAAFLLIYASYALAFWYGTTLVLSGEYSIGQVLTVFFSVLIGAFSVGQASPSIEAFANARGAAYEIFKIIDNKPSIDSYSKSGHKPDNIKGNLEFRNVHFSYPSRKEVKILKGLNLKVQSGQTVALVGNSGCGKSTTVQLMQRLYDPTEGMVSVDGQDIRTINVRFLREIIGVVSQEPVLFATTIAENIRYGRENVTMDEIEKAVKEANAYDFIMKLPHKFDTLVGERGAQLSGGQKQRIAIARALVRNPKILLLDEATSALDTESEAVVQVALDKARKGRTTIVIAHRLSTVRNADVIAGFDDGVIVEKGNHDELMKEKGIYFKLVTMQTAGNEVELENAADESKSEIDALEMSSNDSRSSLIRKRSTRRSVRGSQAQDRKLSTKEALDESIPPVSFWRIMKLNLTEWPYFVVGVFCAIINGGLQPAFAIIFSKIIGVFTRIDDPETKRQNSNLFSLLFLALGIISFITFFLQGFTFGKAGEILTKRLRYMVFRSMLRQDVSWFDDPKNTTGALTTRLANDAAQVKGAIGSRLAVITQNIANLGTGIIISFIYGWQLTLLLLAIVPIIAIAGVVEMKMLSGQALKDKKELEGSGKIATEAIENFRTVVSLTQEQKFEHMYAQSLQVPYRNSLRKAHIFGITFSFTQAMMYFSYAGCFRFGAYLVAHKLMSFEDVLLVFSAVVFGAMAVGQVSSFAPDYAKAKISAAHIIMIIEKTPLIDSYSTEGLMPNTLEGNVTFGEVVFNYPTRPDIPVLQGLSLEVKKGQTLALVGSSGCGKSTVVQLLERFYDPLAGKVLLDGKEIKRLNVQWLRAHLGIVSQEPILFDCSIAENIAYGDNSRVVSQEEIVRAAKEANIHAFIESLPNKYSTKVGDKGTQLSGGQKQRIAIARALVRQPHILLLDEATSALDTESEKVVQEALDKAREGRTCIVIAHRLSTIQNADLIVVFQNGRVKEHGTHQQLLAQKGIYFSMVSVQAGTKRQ
# Mu-type opioid receptor, sequence (P35372 whole entry): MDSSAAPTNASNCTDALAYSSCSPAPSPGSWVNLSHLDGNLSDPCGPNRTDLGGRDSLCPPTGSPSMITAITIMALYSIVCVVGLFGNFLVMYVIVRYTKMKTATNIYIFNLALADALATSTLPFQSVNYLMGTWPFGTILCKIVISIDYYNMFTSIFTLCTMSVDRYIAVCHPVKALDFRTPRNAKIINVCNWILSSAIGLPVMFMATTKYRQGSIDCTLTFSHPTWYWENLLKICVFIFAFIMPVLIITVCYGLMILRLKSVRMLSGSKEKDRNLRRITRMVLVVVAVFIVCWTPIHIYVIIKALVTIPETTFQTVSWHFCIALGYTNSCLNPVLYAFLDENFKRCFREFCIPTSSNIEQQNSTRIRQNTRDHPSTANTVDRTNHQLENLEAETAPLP
structure (smiles),measurement,setting,value
CC1(C)CC(=O)C(/C=N\CCc2ccc(O)cc2)=C(O)C1,IC50,[1],8.81 µM (active)
same,IC50,[2],> 29.9 µM (inactive)
same,EC50,[3],1.84 µM (active)
same,EC50,[4],> 29.9 µM (inactive)
Nc1c(N(CCC2=CCCCC2)C(=O)COc2ccc([N+](=O)[O-])cc2)c(=O)[nH]c(=O)n1Cc1ccccc1,AC50,[5],14.2 µM (active)
CN1C(=O)c2cc(NC(=O)c3cccs3)ccc2OC[C@H]2O[C@@H](CC(=O)NCCN3CCCCC3)CC[C@@H]21,AC50,[6],4.24 µM (active)
CCOc1ccc2nc(NC3=NC(C)=CC(C)(C)N3)nc(C)c2c1,IC50,[7],> 20 µM (inactive)
same,IC50,[8],3.25 µM (active)
same,IC50,[9],6.46 µM (active)
CC(N)Cc1c[nH]c2ccc(Cl)cc12 (centres undefined),EC50,[10],1.64 µM (active)
same,EC50,[11],92.5 µM (inactive)
O=C(c1ccncc1)N1CCN(c2cc(-c3ccccc3)nc3cc(-c4cccc(Cl)c4)nn23)CC1,EC50,[12],0.95 µM (active)
same,EC50,[13],1.19 µM (active)
Cc1ccc(Cn2c(C(C)Nc3nc(-c4ccc(C)cc4)cs3)nc3cc(Cl)c(Cl)cc32)cc1 (centres undefined),IC50,[14],> 59.6 µM (inactive)
same,IC50,[15],3.52 µM (active)
same,IC50,[16],> 59.6 µM (inactive)
same,IC50,[17],4.57 µM (active)
same,IC50,[18],> 50 µM (inactive)
same,IC50,[19],> 66.6 µM (inactive)
Clc1ccc(CN2CCN(c3ccccc3)CC2)cn1,EC50,[10],5.22 µM (active)
same,EC50,[11],92.5 µM (inactive)
O=C(Nc1cccnc1)c1ccc(Oc2ccccc2)cc1,AC50,[20],0.751 µM (active)
CN(c1ccc(OCC(=O)Nc2ccccc2C(=O)O)cc1)S(=O)(=O)c1ccc(Cl)cc1,IC50,[21],20.1 µM (active)
CCOC(=O)C(NC(C)=O)(N1CCc2ccccc2C1)C(F)(F)F (centres undefined),IC50,[1],2.8 µM (active)
same,IC50,[2],> 29.9 µM (inactive)
same,EC50,[3],0.0868 µM (active)
same,EC50,[4],> 29.9 µM (inactive)
CC(C)CC(NC(=O)OCc1ccccc1)C(=O)NC(Cc1ccccc1)C(=O)CCl (stereo not drawn) (Cbz-Leu-Phe-CH2Cl; configuration not given here),CC50,[22],21.5 µM (active)
same,IC50,[21],20.5 µM (active)
CCSc1ccccc1C(=O)n1nnc2ccccc21,AC50,[5],11.8 µM (active)
O=C(CNc1cc(S(=O)(=O)N2CCCC2)ccc1OCC(F)(F)F)Nc1ccc(SC(F)F)cc1,IC50,[23],6.37 µM (active)
same,IC50,[24],2.98 µM (active)
same,IC50,[8],2.54 µM (active)
same,IC50,[9],1.85 µM (active)
